# Test results: ChEMBL document CHEMBL1135069, “The discovery of acylated beta-amino acids as potent and orally bioavailable VLA-4 antagonists” (Bioorg Med Chem Lett, 2002)
# Legend:
# Integrin alpha-4/beta-1 [1] = molecular target: T1, Integrin alpha-4/beta-1 (Homo sapiens, UniProt P05556+P13612); assay: Inhibitory activity against alpha-4 beta-1 receptor (VLA-4) in human RPMI-8866 cells using [125I]-VCAM-Ig ligand; assay type: cell-based
# in vivo = conditions: Sprague-Dawley, rat, plasma, iv, 1 mg/kg
# Rattus norvegicus = organism: Rattus norvegicus; conditions: in vivo, iv, 1 mg/kg
# Integrin alpha-4/beta-1 [2] = molecular target: T1, Integrin alpha-4/beta-1; assay: Inhibition of [125I]VCAM-Ig binding to alpha4-beta1 (VLA-4) of human RPMI-8866 cells; assay type: cell-based
# [3] = Bioavailability in rat (dose 1 mg/kg i.v. and 2 mg/kg p.o.); conditions: in vivo, po, F
# T1 sequence (P05556 whole entry): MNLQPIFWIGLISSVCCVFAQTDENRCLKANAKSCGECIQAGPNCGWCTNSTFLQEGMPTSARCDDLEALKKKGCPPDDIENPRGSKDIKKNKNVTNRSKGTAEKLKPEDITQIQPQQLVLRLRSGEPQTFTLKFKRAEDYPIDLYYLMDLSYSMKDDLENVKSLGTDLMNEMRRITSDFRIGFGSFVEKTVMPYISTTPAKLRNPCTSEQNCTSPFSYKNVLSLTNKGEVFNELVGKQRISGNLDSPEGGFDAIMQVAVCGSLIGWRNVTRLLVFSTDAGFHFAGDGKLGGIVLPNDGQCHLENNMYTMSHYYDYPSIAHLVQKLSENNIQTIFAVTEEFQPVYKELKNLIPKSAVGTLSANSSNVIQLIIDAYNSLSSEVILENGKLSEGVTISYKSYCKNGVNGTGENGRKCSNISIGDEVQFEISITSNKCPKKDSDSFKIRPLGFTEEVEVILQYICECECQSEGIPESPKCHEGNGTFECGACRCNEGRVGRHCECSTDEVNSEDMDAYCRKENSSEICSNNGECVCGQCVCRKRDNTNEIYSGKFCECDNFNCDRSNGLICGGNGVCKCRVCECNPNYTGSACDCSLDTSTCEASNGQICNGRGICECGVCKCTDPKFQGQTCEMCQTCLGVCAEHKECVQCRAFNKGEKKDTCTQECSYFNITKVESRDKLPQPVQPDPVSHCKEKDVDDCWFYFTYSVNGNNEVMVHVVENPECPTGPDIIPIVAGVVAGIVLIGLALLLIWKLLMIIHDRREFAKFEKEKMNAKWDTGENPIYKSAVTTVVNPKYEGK
# T1 sequence (P13612 whole entry): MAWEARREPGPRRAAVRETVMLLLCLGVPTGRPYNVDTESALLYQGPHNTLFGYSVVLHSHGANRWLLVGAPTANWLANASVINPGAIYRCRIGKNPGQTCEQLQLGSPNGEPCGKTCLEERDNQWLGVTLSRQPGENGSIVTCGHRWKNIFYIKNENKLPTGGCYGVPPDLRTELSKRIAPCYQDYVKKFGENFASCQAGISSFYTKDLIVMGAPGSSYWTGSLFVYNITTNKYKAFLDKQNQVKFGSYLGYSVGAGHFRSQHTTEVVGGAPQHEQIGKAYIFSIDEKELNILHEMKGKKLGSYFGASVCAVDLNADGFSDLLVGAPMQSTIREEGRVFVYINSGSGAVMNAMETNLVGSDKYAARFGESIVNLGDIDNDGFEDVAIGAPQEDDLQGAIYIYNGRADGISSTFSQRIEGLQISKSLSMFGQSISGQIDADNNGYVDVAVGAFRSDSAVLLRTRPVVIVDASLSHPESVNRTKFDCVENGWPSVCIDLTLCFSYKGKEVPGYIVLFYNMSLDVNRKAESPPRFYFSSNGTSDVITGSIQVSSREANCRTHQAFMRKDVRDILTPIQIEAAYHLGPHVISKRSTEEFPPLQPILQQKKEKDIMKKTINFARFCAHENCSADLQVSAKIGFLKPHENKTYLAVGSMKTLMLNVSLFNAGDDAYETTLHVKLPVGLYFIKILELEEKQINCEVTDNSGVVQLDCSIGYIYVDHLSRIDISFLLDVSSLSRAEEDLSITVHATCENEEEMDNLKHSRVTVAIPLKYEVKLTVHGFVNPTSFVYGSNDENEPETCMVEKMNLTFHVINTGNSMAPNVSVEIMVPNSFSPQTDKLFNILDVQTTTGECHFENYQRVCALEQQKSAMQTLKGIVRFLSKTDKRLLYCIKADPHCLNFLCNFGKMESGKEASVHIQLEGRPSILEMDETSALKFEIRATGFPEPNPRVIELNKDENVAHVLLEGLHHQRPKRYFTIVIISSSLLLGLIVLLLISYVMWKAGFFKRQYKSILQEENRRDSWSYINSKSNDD
SMILES,IC50 (Integrin alpha-4/beta-1 [1]) [nM],clearance (in vivo) [mL/min/kg],also measured
C/C=C/[C@@H](CC(=O)O)NC(=O)[C@@H]1CCCN1S(=O)(=O)c1cc(Cl)cc(Cl)c1,13,,
O=C(O)C[C@@H](NC(=O)[C@@H]1CCN1S(=O)(=O)c1cc(Cl)cc(Cl)c1)c1ccc(Oc2ccccc2)cc1,3.1,,
O=C(O)[C@H](Cc1ccccc1)NC(=O)[C@@H]1CCCN1S(=O)(=O)c1cc(Cl)cc(Cl)c1,1.4,,
O=C(O)C[C@@H](NC(=O)[C@@H]1CCN1S(=O)(=O)c1cc(Cl)cc(Cl)c1)c1ccc(F)cc1,3.2,,
O=C(O)C[C@@H](NC(=O)[C@@H]1CCN1S(=O)(=O)c1cc(Cl)cc(Cl)c1)c1ccc(OC2CC2)cc1,0.31,70,
O=C(O)C[C@@H](NC(=O)[C@@H]1CCN1S(=O)(=O)c1cc(Cl)cc(Cl)c1)c1ccc(Br)cc1,2.1,,
O=C(O)C[C@H](Cc1ccccc1)NC(=O)[C@@H]1CCCN1S(=O)(=O)c1cc(Cl)cc(Cl)c1,22,,
CC(C)[C@H](CC(=O)O)NC(=O)[C@@H]1CCCN1S(=O)(=O)c1cc(Cl)cc(Cl)c1,362,,
O=C(O)CCNC(=O)[C@@H]1CCCN1S(=O)(=O)c1cc(Cl)cc(Cl)c1,1510,,
CS(=O)(=O)c1ccc([C@@H](CC(=O)O)NC(=O)[C@@H]2CCCN2S(=O)(=O)c2cc(Cl)cc(Cl)c2)cc1,0.55,92,
O=C(O)C[C@@H](NC(=O)[C@@H]1CCN1S(=O)(=O)c1cc(Cl)cc(Cl)c1)c1ccccc1,,27,IC50 (Integrin alpha-4/beta-1 [2]): 2.4 nM
O=C(O)C[C@H](NC(=O)[C@@H]1CCCN1S(=O)(=O)c1cc(Cl)cc(Cl)c1)c1ccccc1,544,,
COc1ccc([C@](C)(CC(=O)O)NC(=O)[C@@H]2CCN2S(=O)(=O)c2cc(Cl)cc(Cl)c2)cc1,26,46,bioavailability [3]: 19%
O=C(O)C[C@@H](NC(=O)[C@@H]1CCN1S(=O)(=O)c1cc(Cl)cc(Cl)c1)c1ccc(OC2CCCC2)cc1,0.5,165,
O=C(O)C[C@@H](NC(=O)[C@@H]1CCN1S(=O)(=O)c1cc(Cl)cc(Cl)c1)c1ccc(Cl)c(F)c1,11,,
Cc1ccccc1NC(=O)Nc1ccc(CN[C@@H](CC(C)C)C(=O)N[C@@H](CC(=O)O)c2ccc3c(c2)OCO3)cc1,3,,
COc1ccc([C@@H](CC(=O)O)NC(=O)[C@]2(C)CCN2S(=O)(=O)c2cc(Cl)cc(Cl)c2)cc1,1.5,7,
CC(C)[C@@H](CC(=O)O)NC(=O)[C@@H]1CCCN1S(=O)(=O)c1cc(Cl)cc(Cl)c1,8.9,,
COc1ccc([C@@H](CC(=O)O)NC(=O)[C@@H]2CCN2S(=O)(=O)c2cc(Cl)cc(Cl)c2)cn1,3,55,

# Continued, in another order:
IC50 (Integrin alpha-4/beta-1 [1]) [nM],clearance (in vivo) [mL/min/kg],SMILES,also measured
0.72,,O=C(O)C[C@@H](NC(=O)[C@@H]1CCN1S(=O)(=O)c1cc(Cl)cc(Cl)c1)c1ccc(OCF)cc1,
0.74,22,O=C(O)C[C@@H](NC(=O)[C@@H]1CCCN1S(=O)(=O)c1cc(Cl)cc(Cl)c1)c1ccc(O)cc1,
2.6,22,O=C(O)C[C@@H](NC(=O)[C@@H]1CCCN1S(=O)(=O)c1cc(Cl)cc(Cl)c1)c1ccc(OC(F)(F)F)cc1,
0.85,26,O=C(O)C[C@@H](NC(=O)[C@@H]1CCCN1S(=O)(=O)c1cc(Cl)cc(Cl)c1)c1ccc(OC2CC2)cc1,
0.39,,COc1ccc([C@@H](CC(=O)O)NC(=O)[C@@H]2CCN2S(=O)(=O)c2cc(Cl)cc(Cl)c2)cc1 (stereo in doubt; 6g),clearance (Rattus norvegicus): 39 mL/min/kg
0.49,,COc1ccc([C@@H](CC(=O)O)NC(=O)[C@@H]2CCN2S(=O)(=O)c2cc(Cl)cc(Cl)c2)cc1 (stereo in doubt; 7g),clearance (Rattus norvegicus): 17 mL/min/kg
1.3,,O=C(O)C[C@@H](NC(=O)[C@@H]1CCN1S(=O)(=O)c1cc(Cl)cc(Cl)c1)c1ccc(OC(F)F)cc1,
0.27,40,CCOc1ccc([C@@H](CC(=O)O)NC(=O)[C@@H]2CCCN2S(=O)(=O)c2cc(Cl)cc(Cl)c2)cc1,
0.53,,CC(C)(C)Oc1ccc([C@@H](CC(=O)O)NC(=O)[C@@H]2CCCN2S(=O)(=O)c2cc(Cl)cc(Cl)c2)cc1,
1.4,43,O=C(O)C[C@@H](NC(=O)[C@@H]1CCN1S(=O)(=O)c1cc(Cl)cc(Cl)c1)c1ccc(OCC(F)(F)F)cc1,bioavailability [3]: 38%
